# Where a SMILES comes first, the peptide text is derived from it. [ ]: non-standard residue; d: D form. ξ: configuration not given here. Hyp = O=C(O)[C@@H]1C[C@@H](O)CN1; Nva = CCC[C@H](N)C(=O)O; ξPip = O=C(O)C1CCCCN1; Aib = CC(C)(N)C(=O)O
# What was measured:
# [1] = system: N-methyl-D-aspartate (NMDA) receptor; details: background statement; cited from earlier work
# IGF-1 receptor = IGF-1 receptor (Homo sapiens, UniProt P08069); details: background statement; cited from earlier work
# cortical cell culture = test: Rat cortical dissociated cell culture, okadaic acid injury, MTT viability; details: 100 nM okadaic acid
# Description: (§1) Embryonic E18/19 wistar rats were used for the generation of dissociated cortical cell cultures. The rear portion (occipital cortex-area 17/18 of the visual cortex) of the cortical plate is used for the generation of the cultures. Cells were grown for 3-10 DIV in one part of serum-free medium and one part of rat cortex-derived cultivated astrocytic-conditioned medium (ACM).
# (§2) 96-well tissue culture plates were coated with 0.2 mg/ml poly-L-lysine followed by 2 μg/ml laminin. Subsequently 60 μl of ACM were added per well and plate was stored at 37° C. until plating of cortical cells.
# (§3) Whole cortices of P1/2 wistar pups were collected into separate tubes containing 4 ml DMEM-1 cortex per tube. The tissues were triturated a few times with a 5 ml sterile pipette to break up them up into smaller pieces. Each tube was poured separately into a reagent reservoir and triturated once with a 5 ml syringe and 18 gauge drawing needle. The mixture was then filtered through a 100 μm cell strainer into a 50 ml centrifuge tube. The strainer was washed with 5 ml DMEM. The cell solution was extended with DMEM to 50 ml of volume. The solution was then centrifuged for 5mins at 350g at RT. The cells were resuspended in 40 ml of DMEM+10% FBS. The cells were then reconstituted into a 75 cm^2 cell flask and incubated at 37° C./10% CO2/100% humidity in […]. […] The medium was replaced after 1 day with fresh DMEM+10% FBS. The cell growth was monitored and media+FBS replaced twice weekly until the cells were confluent (˜10-14 days). Once the confluency reached, the cells were washed once with 20 ml sterile PBS. Cells were incubated for 3 days in 30 ml Neurobasal medium+B27 supplement to maintain cells under serum-free conditions. Cell supernatant was then filter through a 0.22 μm sterile filter and frozen in aliquots at −80° C.
# (§4) The tissues were stored in PBS+glucose solution on ice until all dissection was completed. Tissue material was centrifuged at 350g for 5 mins at RT. The supernatant was removed and cell pellets were incubated in 5 ml trypsin/EDTA solution (Invitrogen) for 8 mins at 37° C. Proteolysis was stopped by addition of one part of DMEM+10% FBS. Subsequently, the tissued were centrifuged at 350g for 5 mins at RT. The pellet was collected, washed (centrifugation) twice in NB/B27 medium (Invitrogen) and resuspended in 1 ml NB/B27 medium. Tissue was transferred into a petri dish and triturated twice with a glass pasteur pipette attached to a pipette to break up large pieces of tissue. The tissue was then triturated twice using a 1 ml syringe and 22 gauge needle and passed through a 100 μm cell strainer to remove remaining large tissue pieces. The cells were washed with 1 ml NB/B27. The number of viable neurons was counted and the percentage of cell viability determined. […] The cortical cells were incubated at 37° C./10% CO2/100% humidity.
# (§5) In order to induce neuronal injury the phosphatase 1/2A antagonist okadaic acid is added for 24 hrs. Simultaneously, an analog of GPE of this invention was administered. After 24 hrs metabolic activity was measured by addition of MTT for 2-4 hrs followed by addition of SDS-solution and photometric end point measurement at 595 nm.
# (§6) Student's unpaired t-test is used for testing for statistical significance when comparing uninjured controls with the injured neuronal rescue agent containing conditions.
# striatal cells = test: Striatal cell culture, 30 nM okadaic acid injury, MTT viability; type: cell-based, Wistar rats; details: for neuroprotection against okadaic acid induced loss of cell viability: okadaic acid (30 nM), 24 h, MTT, striatal cell culture (FIGS. 3, 4, 6)
# Text: (§7) Two pregnant Wistar rats (gestational day 18) underwent Caesarean section according to approved procedures from the Animal Ethics Committee of the University of Auckland. The Wistar dams were anaesthetised in a CO2-enriched atmosphere and sacrificed by subsequent spinal cord dislocation. The embryos were removed from their embryonic sacs and decapitated. After incisions into the skull with fine scissors, the embryonic brain was removed with a fine spatula. Striatal tissue was separated from neocortical tissue under the microscope and placed into serum-free DMEM/F-12 medium supplemented with penicillin/streptomycin (100 u/mL). Tissue underwent 15 trituration steps using a P1000 pipettor to obtain dissociated cells, which were centrifuged for 5 min at 250 G (4° C.) and the supernatant was discarded. Cells were re-suspended into 1 mL DMEM/F-12 medium and were kept on ice. Cell suspension (400,000 cells/cm2) was applied to 0.1 mg/mL poly-L-lysine pre-coated 96-well plates (3 h at 37° C.) and the volume was increased up to 100 μL with DMEM/F-12+5% FBS. Cells were cultivated at 37° C. in 100% humidity in a 5% CO2 atmosphere. After 24 h the medium was changed to serum-free Neurobasal/B27. Cell medium was changed every 3 days and maintained until 8 days in vitro (DWV).
# (§8) Striatal cells were injured after 2, 3, 7 or 8 days in vitro. The injury paradigm involved 30 nM okadaic acid treatment with simultaneous administration of a GPE analog of this invention for 24 h. 1 μL of 3 μM okadaic acid stock solution together with 1 μL of GPE analog dissolved in PBS (vehicle received 2 μL of PBS) were incubated for 24 h with the striatal cells. Subsequently, 20 μL MTT (5 mg/mL in PBS) was added for 4 h. The reaction was terminated by addition of 100 μL 4% sodium dodecyl sulfate (SDS) solution. After 16-24 h incubation time, photometric extinction values are read at 595 nm. The difference between the vehicle and the okadaic acid injury condition was calculated. This value was set as the theoretical 100% recovery value. Measured values for the tested compounds were expressed in percentage of the 100% value. The unpaired Student's t-test was used for statistical analysis.
# [2] = Rat cortical dissociated cell culture, okadaic acid injury, MTT viability; details: Wistar, rat
# Description: as §1, §2, §3, §4, §5, §6
# cerebellar cells = test: Cerebellar microexplant culture, 3-NP/glutamate injury, count of cells with neurites; type: cell-based, Wistar rats; details: toxin alone, cerebellar cell culture (FIG. 7)
# Description: Postnatal day 3, 4 or 8 Wistar rats were used for the study. The rats were sacrificed and placed in ice for 1 minute, decapitated and the cerebellum removed and placed on ice. Cerebellum tissue was placed in 1 ml of 0.65% glucose-supplemented PBS (10 μl 65% stock D (+)glucose/1 ml PBS) in a large Petri dish, chopped up into smaller sections and triturated with a 1 ml insulin syringe via a 23 gauge (0.4 mm) needle, and then squirted back into the glucose solution in the Petri dish. The tissue was sieved through (125 µm pore size) and centrifuged (2 minutes at 60×g) twice to exchange the medium into serum-free BSA-supplemented START V medium (Biochrom, Germany). […]
# After explants were exposed to a GPE analog of this invention for the study period, cells were then rinsed in PBS and then fixed in increasing concentrations of paraformaldehyde (500 μl of 0.4% PFA was applied; then 1.2% PFA; then 3% PFA and finally 4% PFA (each fixation step: 2-3 minutes). Finally, the microexplants were rinsed in PBS. Neurons in the explants were then evaluated for morphology (presence of neurites) and counted as live cells per microscopic field. Four fields displaying highest cell density were counted per cover slip and the data presented as mean ±standard error of the mean (SEM); n=4 each. Statistical significance was evaluated by using the non-paired Student's t-test.
# [3] = Striatal cell culture, 30 nM okadaic acid injury, MTT viability; type: cell-based, Wistar rats; details: Wistar, rat; okadaic acid alone, other studies FIGS. 2-6 (striatal and cortical cultures); read-out: decrease in numbers of viable cells
# Text: as §7, §8
# [4] = 24 hrs, MTT, cortical cell culture (FIG. 1)
# IGF-1 receptor, sequence (P08069 31-736 limits assumed): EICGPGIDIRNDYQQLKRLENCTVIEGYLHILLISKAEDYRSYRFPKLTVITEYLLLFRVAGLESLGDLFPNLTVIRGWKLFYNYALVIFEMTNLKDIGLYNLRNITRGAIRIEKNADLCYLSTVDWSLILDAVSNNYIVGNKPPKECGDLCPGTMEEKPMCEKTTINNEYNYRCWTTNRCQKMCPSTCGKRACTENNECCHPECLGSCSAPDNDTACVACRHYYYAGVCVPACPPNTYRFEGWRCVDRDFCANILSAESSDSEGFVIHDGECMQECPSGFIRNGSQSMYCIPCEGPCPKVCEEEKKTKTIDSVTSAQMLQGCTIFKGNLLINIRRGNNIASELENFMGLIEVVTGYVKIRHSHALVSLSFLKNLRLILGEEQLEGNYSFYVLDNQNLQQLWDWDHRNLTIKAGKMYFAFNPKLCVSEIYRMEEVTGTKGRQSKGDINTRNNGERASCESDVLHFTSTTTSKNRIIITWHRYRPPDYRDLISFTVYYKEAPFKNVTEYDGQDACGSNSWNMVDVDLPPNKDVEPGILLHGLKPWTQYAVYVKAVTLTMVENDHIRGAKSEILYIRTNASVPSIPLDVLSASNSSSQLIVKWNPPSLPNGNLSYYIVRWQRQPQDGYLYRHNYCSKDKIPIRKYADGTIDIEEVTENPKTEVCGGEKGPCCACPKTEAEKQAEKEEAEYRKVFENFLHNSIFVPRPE
# IGF-1 receptor, sequence (P08069 741-1367 partner limits assumed): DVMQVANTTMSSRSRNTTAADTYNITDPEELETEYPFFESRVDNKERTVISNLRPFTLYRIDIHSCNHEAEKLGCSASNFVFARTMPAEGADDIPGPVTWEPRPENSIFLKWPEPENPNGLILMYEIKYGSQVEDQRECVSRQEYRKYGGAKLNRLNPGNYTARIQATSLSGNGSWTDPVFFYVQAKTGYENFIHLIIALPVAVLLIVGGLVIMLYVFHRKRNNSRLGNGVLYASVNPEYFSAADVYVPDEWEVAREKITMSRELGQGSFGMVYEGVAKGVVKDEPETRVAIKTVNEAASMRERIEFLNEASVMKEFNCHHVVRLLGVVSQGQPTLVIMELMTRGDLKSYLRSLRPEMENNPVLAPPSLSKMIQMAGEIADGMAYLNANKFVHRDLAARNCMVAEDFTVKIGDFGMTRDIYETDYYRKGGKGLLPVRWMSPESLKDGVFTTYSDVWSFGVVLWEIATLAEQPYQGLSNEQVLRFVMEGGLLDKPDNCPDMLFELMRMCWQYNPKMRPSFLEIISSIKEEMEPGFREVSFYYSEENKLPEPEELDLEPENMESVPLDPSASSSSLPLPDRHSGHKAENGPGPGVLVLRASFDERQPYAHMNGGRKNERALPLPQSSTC
structure (smiles),measurement,setting,value
"NCC(=O)N1CCC[C@H]1C(=O)N[C@@H](CCC(=O)O)C(=O)O [GPE, Glycyl-L-Prolyl-L-Glutamate]",binding affinity to NMDA receptor,[1],low affinity
same,binding to IGF-1 receptor,IGF-1 receptor,does not bind
same,neuroprotection against okadaic acid induced loss of cell viability,cortical cell culture; [4],reversed the okadaic acid induced loss of cell viability
"CC1(C)SCN(C(=O)CN)[C@@H]1C(=O)N[C@@H](CCC(=O)O)C(=O)O [analog 49, Glycyl-L-thia-5,5-dimethylprolyl-L-glutamic acid]",neuroprotection against okadaic acid induced loss of cell viability,cortical cell culture; [4],neuroprotective
same,protection against loss of neural cell viability caused by okadaic acid,"cortical cell culture; concentration range 10 nM to 10 μM, cortical cell culture (FIG. 1)",100%
"NCC(=O)N1C[C@H](O)C[C@H]1C(=O)N[C@@H](CCC(=O)O)C(=O)O [analog 60, Glycyl-trans-4-hydroxy-L-prolyl-L-glutamic acid] (H-Gly-[Hyp]-Glu-OH)",statistical significance of neuroprotective effect,"striatal cells; at concentrations of 100 nM and 100 μM and 1 mM, 30 nM okadaic acid, striatal (FIG. 3)",statistically significant effects
same,neuroprotection against okadaic acid induced loss of cell viability,striatal cells,neuroprorotective
"CC(C)(N)C(=O)N1CCC[C@H]1C(=O)N[C@@H](CCC(=O)O)C(=O)O [analog 64, Aminoisobutryl-L-prolyl-L-glutamic acid] (H-[Aib]-Pro-Glu-OH)",protection from the loss of neural cell viability induced by okadaic acid,"striatal cells; at 1 mM, 30 nM okadaic acid, striatal (FIG. 4)",complete protection
same,neuroprotective efficacy compared with GPE,"striatal cells; concentration range 100 μM to 1 mM, 30 nM okadaic acid, striatal (FIG. 4)",more effective than GPE
same,neuroprotection against okadaic acid induced loss of cell viability,striatal cells,neuroprotective
"CCC[C@H](NC(=O)[C@@H]1CCCN1C(=O)CN)C(=O)O [analog 65, Glycyl-L-prolyl-L-Norvaline] (H-Gly-Pro-[Nva]-OH)",protection against loss of cell viability induced by okadaic acid,"cortical cell culture; at nearly every concentration tested (10 nM to 1 mM), cortical cell culture (FIG. 5)",100%
same,neuroprotection against okadaic acid induced loss of cell viability,"cortical cell culture; broad range of concentrations, 10 nM to 1 mM, cortical cell culture (FIG. 5)",neuroprotective
"NCC(=O)N1CCCCC1C(=O)N[C@@H](CCC(=O)O)C(=O)O (stereo partly drawn) [analog 66, Glycyl-D,L-pipecolinyl-L-glutamic Acid] (H-Gly-[ξPip]-Glu-OH)",statistical significance of neuroprotective effect,"striatal cells; at concentrations of 100 nM, 100 mM and 1 mM, okadaic acid, striatal (FIG. 6)",statistically significant effects
same,neuroprotection against okadaic acid induced loss of cell viability,striatal cells,neuroprotective
"C=C1[C@@H](O)[C@@H]2O[C@]3(CC[C@H](/C=C/[C@@H](C)[C@@H]4CC(C)=C[C@@]5(O[C@H](C[C@@](C)(O)C(=O)O)CC[C@H]5O)O4)O3)CC[C@H]2O[C@@H]1[C@@H](O)C[C@H](C)[C@H]1O[C@@]2(CCCCO2)CC[C@H]1C [okadaic acid, reference compound]",cytotoxicity at 24 h,[2],~30%
same,decrease in the number of cells having neurites,cerebellar cells,over 80%
same,cytotoxicity at 24 h,[3],10 to 50%
